For 1 molecule, IC50 results are on record in patent US4939133A, “N-substituted-2-hydroxy-α-oxo-benzeneacetamides and pharmaceutical compositions having activity as modulators of the arachidonic acid cascade” (Warner-Lambert Company, priority 1985, dated 1990).

SMILES strings stand for the structures.

The target in the experiment is T1, 5-lipoxygenase (isolated human leukocytes) (Homo sapiens, UniProt P09917).
T1 construct: 5-Lipoxygenase Assay Using Isolated Human Leukocytes (5LOA2); endogenous in cells; host or cells: isolated human blood leukocytes, platelets removed
T1 sequence (P09917 1-674): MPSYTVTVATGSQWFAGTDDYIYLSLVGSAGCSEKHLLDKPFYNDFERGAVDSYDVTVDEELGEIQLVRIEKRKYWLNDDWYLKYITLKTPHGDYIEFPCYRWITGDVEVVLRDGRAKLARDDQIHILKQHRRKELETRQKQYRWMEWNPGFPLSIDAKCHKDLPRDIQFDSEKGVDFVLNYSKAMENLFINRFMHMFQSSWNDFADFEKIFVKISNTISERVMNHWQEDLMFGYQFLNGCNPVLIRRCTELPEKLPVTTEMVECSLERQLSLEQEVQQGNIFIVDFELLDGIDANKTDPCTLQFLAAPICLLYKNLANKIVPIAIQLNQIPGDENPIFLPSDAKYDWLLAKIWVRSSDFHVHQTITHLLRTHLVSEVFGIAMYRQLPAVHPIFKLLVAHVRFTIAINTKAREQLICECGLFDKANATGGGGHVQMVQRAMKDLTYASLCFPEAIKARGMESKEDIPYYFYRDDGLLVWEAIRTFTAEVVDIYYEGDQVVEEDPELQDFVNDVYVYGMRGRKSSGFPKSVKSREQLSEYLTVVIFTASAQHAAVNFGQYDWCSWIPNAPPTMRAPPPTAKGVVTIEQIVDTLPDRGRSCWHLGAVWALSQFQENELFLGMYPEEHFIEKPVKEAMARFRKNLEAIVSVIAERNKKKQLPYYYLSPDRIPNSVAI
The experiment can be described thus: 5-Lipoxygenase Assay Using Isolated Human Leukocytes (5LOA2). The class given is cell-based. As to conditions: 5LOA2; 50% inhibition of 5-HETE formation; E -number means X 10^-no.; read-out: Concentration giving 50.00 % Inhibition (5LOA2). The protocol: 5-Lipoxygenase Assay Using Isolated Human Leukocytes (5LOA2)
The formation of 5-HETE in human leukocytes is considered a measure of 5-lipoxygenase activity. The protocol is described in the following.
Fresh heparinized or EDTA treated human blood is mixed with 6% dextran-3% dextrose in isotonic saline in the ratio 0.25 ml dextran solution per 1.0 ml blood. After mixing the blood is allowed to sit at room temperature for about 90 minutes while the RBC's settle. During this period, the plasma is removed with a plastic pipette to nalgens tubes.
The plasma is centrifuged at 800 rpm ([…]) on the Beckman Td-b refrigerated centrifuge to remove the platelets (which remain in the supernatant). The pellet, consisting of leukocytes and erythrocytes, is treated with 10 ml 0.87% ammonium chloride at room temperature for four minutes, lysing the red cells. At the end of four minutes the cells are diluted with a 2×volume of phosphate buffered saline, pH 7.4, and centrifuged for ten minutes. The cells are washed three times with the phosphate buffered saline. Any of the pelleted cell matter which is not easily resuspended is discarded during the washings --the material contains platelets (12-lipoxygenase activity).
After washing, the cells are resuspended in phosphate buffered saline containing 1.0 mM calcium and 0.5 mM magnesium. After counting the cells are diluted to 1.5-2.0×10^7 leukocytes per milliliter.
To each polypropylene reaction tube is added 0.48 ml leukocytes in Ca-Mg phosphate buffered saline, pH 7.4; 1-5 μl test compound dissolved in DMSO and buffer; or DMSO for control tubes.
The tubes preincubate at 37° C. for five minutes. […]
A portion of the ethanol solution is injected into the HPLC system for 5-HETE quantitation.
The HPLC system consists of Hewlett-Packard 1040A UV spectrophotometry system with an HP85 computer. […] Peaks are measured with a Hewlett Packard 3360A integrator. […] The flow is monitored at 235 nm for 5-HETE quatitation. […]

For `COc1ccc(CCc2ccc(NC(=O)c3ccc(C)cc3O)cc2)cc1OC` [Example 46, N-[4-[2-(3,4-Dimethoxyphenyl)ethyl]phenyl]-2-hydroxy-4-methylbenzamide], the IC50 is 1.69 µM.
